Test results: patent US9193720B2, “Pyridin-3-yl acetic acid derivatives as inhibitors of human immunodeficiency virus replication” (priority 2014, dated 2015)

Each compound was assayed on NL-RLuc virus (assay: Inhibition of HIV Replication (NL-RLuc luciferase reporter virus in MT-2 cells)). Conditions: Human immunodeficiency virus 1, MT2, 120 h.
Assay type: cell-based
Description: Inhibition of HIV Replication:
A recombinant NL-RLuc proviral clone was constructed in which a section of the nef gene from NL4-3 was replaced with the Renilla Luciferase gene. This virus is fully infectious and can undergo multiple cycles of replication in cell culture. In addition, the luciferous reporter provides a simple and easy method for quantitating the extent of virus growth and consequently, the antiviral activity of test compounds. The plasmid pNLRLuc contains the proviral NL-Rluc DNA cloned into pUC18 at the PvuII site. The NL-RLuc virus was prepared by transfection of 293T cells with the plasmid pNLRLuc. Transfections were performed using the LipofectAMINE PLUS kit from Invitrogen (Carlsbad, Calif.) according to the manufacturer and the virus generated was titered in MT-2 cells. For susceptibility analyses, the titrated virus was used to infect MT-2 cells in the presence of compound, and after 5 days of incubation, cells were processed and quantitated for virus growth by the amount of expressed luciferase. Assay media was RPMI 1640 supplemented with 10% heat inactivated fetal bovine serum (FBS), 100 units/ml penicillin G/100 units/ml streptomycin, 10 mM HEPES buffer pH 7.55 and 2 mM L-glutamine. The results from at least 2 experiments were used to calculate the EC50 values. Luciferase was quantitated using the Dual Luciferase kit from Promega (Madison, Wis.). Susceptibility of viruses to compounds was determined by incubation in the presence of serial dilutions of the compound. The 50% effective concentration (EC50) was calculated by using the exponential form of the median effect equation where (Fa)=1/[1+(ED50/drug conc.)^m] (Johnson V A, Byington R T. Infectivity Assay. In Techniques in HIV Research. ed. Aldovini A, Walker B D. 71-76. New York: Stockton Press. 1990).

`Cc1nc(C)c([C@H](OC(C)(C)C)C(=O)O)c(N2CCC(C)(C)CC2)c1-c1ccc(OC(C)Cc2ccc(F)cc2)cc1` (single isomer, unassigned) [Example 21] and `Cc1nc(C)c([C@H](OC(C)(C)C)C(=O)O)c(N2CCC(C)(C)CC2)c1-c1ccc(OCc2ccc(F)cc2)cc1` [Example 2, (S)-2-(tert-butoxy)-2-(4-(4,4-dimethylpiperidin-1-yl)-5-(4-((4-fluorobenzyl)oxy)phenyl)-2,6-dimethylpyridin-3-yl)acetic acid] are within 1.5-fold of each other in EC50: 14 nM for the first, 12 nM for the second.

First: Cc1nc(C)c([C@H](OC(C)(C)C)C(=O)O)c(N2CCC(C)(C)CC2)c1-c1ccc(Oc2ccccc2)cc1 [Example 1, (S)-2-(tert-butoxy)-2-(4-(4,4-dimethylpiperidin-1-yl)-2,6-dimethyl-5-(4-phenoxyphenyl)pyridin-3-yl)acetic acid]
Second: Cc1nc(C)c([C@H](OC(C)(C)C)C(=O)O)c(N2CCC(C)(C)CC2)c1-c1ccc(OCc2ccccc2)cc1 [Example 5, (S)-2-(5-(4-(benzyloxy)phenyl)-4-(4,4-dimethylpiperidin-1-yl)-2,6-dimethylpyridin-3-yl)-2-(tert-butoxy)acetic acid]
The EC50 of the first is 3.4-fold higher: 37 nM for the first, 11 nM for the second. The second is the more potent here.

Compared with `Cc1nc(C)c([C@H](OC(C)(C)C)C(=O)O)c(N2CCC(C)(C)CC2)c1-c1ccc(OCc2ccccc2)nc1` [Example 3, (S)-2-(6′-(benzyloxy)-4-(4,4-dimethylpiperidin-1-yl)-2,6-dimethyl-[3,3′-bipyridin]-5-yl)-2-(tert-butoxy)acetic acid], `Cc1nc(C)c([C@H](OC(C)(C)C)C(=O)O)c(N2CCC(C)(C)CC2)c1-c1ccc(OCc2ccccc2)c(F)c1` [Example 4, (S)-2-(5-(4-(benzyloxy)-3-fluorophenyl)-4-(4,4-dimethylpiperidin-1-yl)-2,6-dimethylpyridin-3-yl)-2-(tert-butoxy)acetic acid] is 1.7-fold lower in EC50: 20 nM for the first, 12 nM for the second.

Compared with `COc1ccccc1COc1ccc(-c2c(C)nc(C)c([C@H](OC(C)(C)C)C(=O)O)c2N2CCC(C)(C)CC2)cc1` [Example 6, (S)-2-(tert-butoxy)-2-(4-(4,4-dimethylpiperidin-1-yl)-5-(4-((2-methoxybenzyl)oxy)phenyl)-2,6-dimethylpyridin-3-yl)acetic acid], `COc1ccc(COc2ccc(-c3c(C)nc(C)c([C@H](OC(C)(C)C)C(=O)O)c3N3CCC(C)(C)CC3)cc2)cc1` [Example 8, (S)-2-(tert-butoxy)-2-(4-(4,4-dimethylpiperidin-1-yl)-5-(4-((4-methoxybenzyl)oxy)phenyl)-2,6-dimethylpyridin-3-yl)acetic acid] is 1.8-fold lower in EC50: 20 nM for the first, 11 nM for the second. The second is the more potent here.

`Cc1nc(C)c([C@H](OC(C)(C)C)C(=O)O)c(N2CCC(C)(C)CC2)c1-c1ccc(OCc2cccc(F)c2)cc1` [Example 7, (S)-2-(tert-butoxy)-2-(4-(4,4-dimethylpiperidin-1-yl)-5-(4-((3-fluorobenzyl)oxy)phenyl)-2,6-dimethylpyridin-3-yl)acetic acid] and `Cc1nc(C)c([C@H](OC(C)(C)C)C(=O)O)c(N2CCC(C)(C)CC2)c1-c1ccc(OCc2ccc(Cl)cc2)cc1` [Example 9, (S)-2-(tert-butoxy)-2-(5-(4-((4-chlorobenzyl)oxy)phenyl)-4-(4,4-dimethylpiperidin-1-yl)-2,6-dimethylpyridin-3-yl)acetic acid] are the same in EC50: 9 nM for the first, 9 nM for the second.

`CCOc1ccc(-c2c(C)nc(C)c([C@H](OC(C)(C)C)C(=O)O)c2N2CCC(C)(C)CC2)cc1` [Example 10, (S)-2-(tert-butoxy)-2-(4-(4,4-dimethylpiperidin-1-yl)-5-(4-ethoxyphenyl)-2,6-dimethylpyridin-3-yl)acetic acid] and `Cc1nc(C)c([C@H](OC(C)(C)C)C(=O)O)c(N2CCC(C)(C)CC2)c1-c1ccc(OCCC(C)(C)C)cc1` [Example 14, (S)-2-(tert-butoxy)-2-(5-(4-(3,3-dimethylbutoxy)phenyl)-4-(4,4-dimethylpiperidin-1-yl)-2,6-dimethylpyridin-3-yl)acetic acid] are within 1.5-fold of each other in EC50: 27 nM for the first, 28 nM for the second.

First: Cc1nc(C)c([C@H](OC(C)(C)C)C(=O)O)c(N2CCC(C)(C)CC2)c1-c1ccc(OCCc2ccc(F)cc2)cc1 [Example 11, (S)-2-(tert-butoxy)-2-(4-(4,4-dimethylpiperidin-1-yl)-5-(4-(4-fluorophenethoxy)phenyl)-2,6-dimethylpyridin-3-yl)acetic acid]
Second: Cc1nc(C)c([C@H](OC(C)(C)C)C(=O)O)c(N2CCC(C)(C)CC2)c1-c1ccc(OCCCc2ccc(F)cc2)cc1 [Example 13, (S)-2-(tert-butoxy)-2-(4-(4,4-dimethylpiperidin-1-yl)-5-(4-(3-(4-fluorophenyl)propoxy)phenyl)-2,6-dimethylpyridin-3-yl)acetic acid]
The EC50 of the first is 3-fold lower: 4 nM for the first, 12 nM for the second. The first is the more potent here.

Compared with `Cc1cc(CCOc2ccc(-c3c(C)nc(C)c([C@H](OC(C)(C)C)C(=O)O)c3N3CCC(C)(C)CC3)cc2)ccc1F` [Example 12, (S)-2-(tert-butoxy)-2-(4-(4,4-dimethylpiperidin-1-yl)-5-(4-(4-fluoro-3-methylphenethoxy)phenyl)-2,6-dimethylpyridin-3-yl)acetic acid], `Cc1nc(C)c([C@H](OC(C)(C)C)C(=O)O)c(N2CCC(C)(C)CC2)c1-c1ccc(OCCc2ccc(F)c(F)c2)cc1` [Example 24, (S)-2-(tert-butoxy)-2-(5-(4-(3,4-difluorophenethoxy)phenyl)-4-(4,4-dimethylpiperidin-1-yl)-2,6-dimethylpyridin-3-yl)acetic acid] is 1.7-fold lower in EC50: 5 nM for the first, 3 nM for the second.

First: COc1ccc(CCOc2ccc(-c3c(C)nc(C)c([C@H](OC(C)(C)C)C(=O)O)c3N3CCC(C)(C)CC3)cc2)cc1 [Example 15, (S)-2-(tert-butoxy)-2-(4-(4,4-dimethylpiperidin-1-yl)-5-(4-(4-methoxyphenethoxy)phenyl)-2,6-dimethylpyridin-3-yl)acetic acid]
Second: Cc1nc(C)c([C@H](OC(C)(C)C)C(=O)O)c(N2CCC(C)(C)CC2)c1-c1ccc(OCCc2ccc(Cl)cc2)cc1 [Example 26, (S)-2-(tert-butoxy)-2-(5-(4-(4-chlorophenethoxy)phenyl)-4-(4,4-dimethylpiperidin-1-yl)-2,6-dimethylpyridin-3-yl)acetic acid]
The EC50 of the first is 4.2-fold lower: 4 nM for the first, 17 nM for the second.

First: Cc1nc(C)c([C@H](OC(C)(C)C)C(=O)O)c(N2CCC(C)(C)CC2)c1-c1ccc(O)cc1 [Example 16, (S)-2-(tert-Butoxy)-2-(4-(4,4-dimethylpiperidin-1-yl)-5-(4-hydroxyphenyl)-2,6-dimethylpyridin-3-yl)acetic acid]
Second: Cc1nc(C)c([C@H](OC(C)(C)C)C(=O)O)c(N2CCC(C)(C)CC2)c1-c1ccc(OCc2ccc(C(N)=O)cc2)cc1 [Example 19, (S)-2-(tert-Butoxy)-2-(5-(4-((4-carbamoylbenzyl)oxy)phenyl)-4-(4,4-dimethylpiperidin-1-yl)-2,6-dimethylpyridin-3-yl)acetic acid]
The EC50 of the first is 14-fold higher: 172 nM for the first, 12 nM for the second. The second is the more potent here.

Compared with `Cc1nc(C)c([C@H](OC(C)(C)C)C(=O)O)c(N2CCC(C)(C)CC2)c1-c1ccc(OCCc2ccc(C(N)=O)cc2)cc1` [Example 17, (S)-2-(tert-Butoxy)-2-(5-(4-(4-carbamoylphenethoxy)phenyl)-4-(4,4-dimethylpiperidin-1-yl)-2,6-dimethylpyridin-3-yl)acetic acid], `Cc1nc(C)c([C@H](OC(C)(C)C)C(=O)O)c(N2CCC(C)(C)CC2)c1-c1ccc(OCCc2ccc(C#N)cc2)cc1` [Example 18, (S)-2-(tert-Butoxy)-2-(5-(4-(4-cyanophenethoxy)phenyl)-4-(4,4-dimethylpiperidin-1-yl)-2,6-dimethylpyridin-3-yl)acetic acid] is 2-fold lower in EC50: 4 nM for the first, 2 nM for the second.

First: Cc1nc(C)c([C@H](OC(C)(C)C)C(=O)O)c(N2CCC(C)(C)CC2)c1-c1ccc(OCc2ccc(C#N)cc2)cc1 [Example 20, (S)-2-(tert-Butoxy)-2-(5-(4-((4-cyanobenzyl)oxy)phenyl)-4-(4,4-dimethylpiperidin-1-yl)-2,6-dimethylpyridin-3-yl)acetic acid]
Second: Cc1nc(C)c([C@H](OC(C)(C)C)C(=O)O)c(N2CCC(C)(C)CC2)c1-c1ccc(OC(C)Cc2ccc(F)cc2)cc1 (stereo partly drawn) [Example 22, (2S)-2-(tert-Butoxy)-2-(4-(4,4-dimethylpiperidin-1-yl)-5-(4-((1-(4-fluorophenyl)propan-2-yl)oxy)phenyl)-2,6-dimethylpyridin-3-yl)acetic acid]
The EC50 of the first is 2.3-fold lower: 3 nM for the first, 7 nM for the second.

First: Cc1nc(C)c([C@H](OC(C)(C)C)C(=O)O)c(N2CCC(C)(C)CC2)c1-c1ccc(OCCc2ccc(F)cc2F)cc1 [Example 23, (S)-2-(tert-butoxy)-2-(5-(4-(2,4-difluorophenethoxy)phenyl)-4-(4,4-dimethylpiperidin-1-yl)-2,6-dimethylpyridin-3-yl)acetic acid]
Second: Cc1nc(C)c([C@H](OC(C)(C)C)C(=O)O)c(N2CCC(C)(C)CC2)c1-c1ccc(OCCc2cc(F)ccc2F)cc1 [Example 25, (S)-2-(tert-butoxy)-2-(5-(4-(2,5-difluorophenethoxy)phenyl)-4-(4,4-dimethylpiperidin-1-yl)-2,6-dimethylpyridin-3-yl)acetic acid]
The EC50 of the first is 1.7-fold higher: 5 nM for the first, 3 nM for the second. The second is the more potent here.
